Five compounds from patent US7786140B2, “Piperidine derivative having NMDA receptor antagonistic activity” (Shionogi & Co., Ltd., priority 2003, dated 2010) can be followed below.

Read-outs that look alike come from different tables or passages of the source.

For assay [1], the target named is T1, NR1/NR2B receptor (Rattus norvegicus, UniProt P35439+Q00960).
T1 construct: the obtained solution was used as a membrane preparation for the experiment; from tissue; host or cells: rat cerebral cortex membrane preparation
T1 sequence (Q00960 27-1482, other chains not shown): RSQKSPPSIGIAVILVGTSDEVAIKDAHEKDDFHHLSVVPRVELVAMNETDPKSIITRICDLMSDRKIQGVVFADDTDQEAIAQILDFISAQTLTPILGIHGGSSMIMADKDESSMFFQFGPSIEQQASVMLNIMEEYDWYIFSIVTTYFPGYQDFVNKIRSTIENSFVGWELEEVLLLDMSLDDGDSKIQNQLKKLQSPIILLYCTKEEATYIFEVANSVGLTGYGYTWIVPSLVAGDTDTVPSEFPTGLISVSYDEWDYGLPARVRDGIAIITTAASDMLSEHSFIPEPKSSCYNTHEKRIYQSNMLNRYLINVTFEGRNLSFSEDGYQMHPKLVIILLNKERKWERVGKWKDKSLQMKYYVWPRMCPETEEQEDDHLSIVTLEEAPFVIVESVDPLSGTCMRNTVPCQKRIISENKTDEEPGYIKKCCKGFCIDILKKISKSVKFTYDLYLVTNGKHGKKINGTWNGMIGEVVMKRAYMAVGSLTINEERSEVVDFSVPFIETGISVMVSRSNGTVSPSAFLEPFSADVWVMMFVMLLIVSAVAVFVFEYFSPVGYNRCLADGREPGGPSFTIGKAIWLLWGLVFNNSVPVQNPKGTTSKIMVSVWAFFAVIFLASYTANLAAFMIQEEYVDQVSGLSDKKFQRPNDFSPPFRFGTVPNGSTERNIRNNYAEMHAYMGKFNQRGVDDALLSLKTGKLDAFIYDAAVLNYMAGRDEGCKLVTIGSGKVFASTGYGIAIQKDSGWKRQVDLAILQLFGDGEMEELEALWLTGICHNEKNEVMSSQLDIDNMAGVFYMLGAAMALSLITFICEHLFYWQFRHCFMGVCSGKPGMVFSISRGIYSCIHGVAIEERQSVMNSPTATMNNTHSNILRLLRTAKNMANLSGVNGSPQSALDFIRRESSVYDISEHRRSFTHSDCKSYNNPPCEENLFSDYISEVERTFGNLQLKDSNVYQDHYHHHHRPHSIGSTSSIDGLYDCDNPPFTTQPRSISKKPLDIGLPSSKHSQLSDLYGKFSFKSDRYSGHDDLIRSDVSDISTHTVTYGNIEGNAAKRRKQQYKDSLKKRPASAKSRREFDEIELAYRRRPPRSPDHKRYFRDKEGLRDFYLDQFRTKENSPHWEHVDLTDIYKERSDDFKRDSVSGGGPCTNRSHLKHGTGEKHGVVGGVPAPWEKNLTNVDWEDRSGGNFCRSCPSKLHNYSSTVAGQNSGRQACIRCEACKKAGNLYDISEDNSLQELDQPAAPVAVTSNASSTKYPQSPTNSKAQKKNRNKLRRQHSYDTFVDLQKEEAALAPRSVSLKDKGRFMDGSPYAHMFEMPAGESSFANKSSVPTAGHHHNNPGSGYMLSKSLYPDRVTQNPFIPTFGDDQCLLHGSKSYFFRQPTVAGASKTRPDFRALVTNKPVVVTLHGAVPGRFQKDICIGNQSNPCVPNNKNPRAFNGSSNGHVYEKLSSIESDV
Put plainly: Experiment of binding to NMDA receptor: competitive binding with [3H]-Ifenprodil, rat cerebral cortex membrane preparation. The settings on record: [3H]-Ifenprodil 5 nM, GBR-12909 3 μM, rat cerebral cortex membranes. The method, then:
Experiment of Binding to NMDA Receptor
Competitive binding assays of the test compounds (10, 18 and 19) were carried out using Ifenprodil, which is an antagonist specific for the NR1/NR2B subtype receptor, as a ligand.
(§1) Male Slc: Wistar rats were killed by beheading, the brains were picked out and the cerebral cortex was fractionated. The cerebral cortex was homogenized with ice-cooled 50 mM Tris-HCl buffer (pH 7.4) in an amount 20 times of the cerebral cortex and centrifuged at 4° C. and 27,500×g for 10 minutes. The obtained precipitate was suspended with the same buffer solution and again centrifuged. These steps were repeated three times and the obtained precipitate was suspended with the buffer solution and stored at −80° C. Immediately before the experiment, the stored suspension was thawed at room temperature and centrifuged at 4° C. and 27,500×g for 10 minutes and the obtained precipitate was suspended with the buffer solution. Further the resulting solution was diluted 10 times with the buffer solution and the obtained solution was used as a membrane preparation for the experiment.
For the binding experiment, 10 μL of test compounds with different concentrations, 10 μL of [^3H]-Ifenprodil, and 10 μL GBR-12909 were added to 470 μL of the above-mentioned membrane preparation and incubated at icing temperature for 120 minutes. The final concentration of [^3H]-Ifenprodil was adjusted to be 5 nM and the final concentration of GBR-12909 was adjusted to be 3 μM. DMSO, which is a solvent, was used for measurement of the total binding quantity and 100 μM of Ifenprodil was used for measurement of the non-specific binding quantity. In this connection, GBR-12909 was added to block the binding of [^3H]-Ifenprodil to the non-polyamine-sensitive site. After the incubation, the bounded bodies and the free bodies were separated by Whatman GF/C filter paper (Whatman Inc.) and the filter paper was washed four times with 2.5 mL of the ice-cooled buffer solution. The filter paper was immersed in a liquid scintillation (Clear-Sol I, Nacalai Tesque Co., Ltd.) in a vial and the radioactivity (dpm) was measured by a liquid scintillation counter. The binding inhibition ratio (%) was calculated from the measured values according to the following equation and the dose for inhibiting 50% binding (IC50) was calculated.
(§2) Binding inhibition ratio (%)=100−[(binding quantity in the presence of the test compound−non-specific binding quantity)/(total binding quantity−non-specific binding quantity)]×100

For a further assay, the system named is PCP receptor. Put plainly: Experiment of binding to PCP receptor: competitive binding with [3H] MK-801, rat cerebral cortex membrane preparation. The following applies: for IC50: [3H] MK-801 2 nM, rat cerebral cortex membranes. The method, then:
Experiment of Binding to PCP Receptor
MK-801 is reported to bind to PCP receptor and cause psychosis.
as §1, with “were used and after beheading of the rats,” for “were killed by beheading,”, “ice-cooled 5” for “ice-cooled 50”, “(pH 7.8)” for “(pH 7.4)”, “times as much” for “times of the cerebral cortex”, “diluted 2.5” for “diluted 10”
For the binding experiment, 10 μL of test compounds with different concentrations and 10 μL of marked ligand [^3H] MK-801 were added to 480 μL of the above-mentioned membrane preparation sample and incubated at 25° C. for 60 minutes. The final concentration of [^3H] MK-801 was adjusted to be 2 nM. DMSO, which is a solvent, was used for measurement of the total binding quantity and 10 μM of (+)MK-801 was used for measurement of the non-specific binding quantity. After the incubation, the bonded bodies and the free bodies were separated by Whatman GF/C filter paper (manufactured by Whatman Inc.) and the filter paper was washed four times with 2.5 mL of the ice-cooled buffer solution. The filter paper was immersed in a liquid scintillation in a vial (Clear-Sol I, manufactured by Nacalai Tesque Co., Ltd.) and the radiation dose (dpm) was measured by a liquid scintillation counter. The binding inhibition ratio (%) was calculated from the measured values according to the following equation and the dose for inhibiting 50% binding (IC50) was calculated.
as §2

In a further assay the target is NR1/NR2A receptor (Mus musculus, UniProt P35436+P35438). As to the kind of experiment: Electric physiological experiment: NMDA-induced inward current in Xenopus laevis oocytes expressing NMDA receptor subunits. It is filed as cell-based. The following applies: NMDA 100 μM and glycine 10 μM, -60 mV. The method, then:
(§3) Expression and Electric Physiological Experiment of NMDA Receptor
(§4) Messenger RNA (mRNA) was transcribed with complementary DNA (cDNA) of mouse NMDA receptor subunits and the mRNA was injected in oocytes of Xenopus Laevis. From two days after the injection, the inward current induced by NMDA was recorded by two electrode membrane potential fixation apparatus. The injection amount of the mRNA was 0.6/0.6 ng on the basis of NR1/NR2B per one oocyte to co-expression of the subunits. Solutions of the test compound (18) with different concentrations were added to the oocytes and the inward current induced by NMDA was recorded by two electrode membrane potential fixation apparatus. The extercellular solution was Mg^2+-free ND96 (NaCl 96 mM, KCl 2 mM, CaCl2 1.8 mM, and Hepes 5 mM and pH=7.5) and the potential was retained at −60 mV. The NMDA current was induced by using NMDA 100 μM and glycine 10 μM. The measured values of the recorded inward current induced by NMDA were substituted in the following equation to calculate the electric response % and the dose for inhibiting 50% (IC50) were calculated. The IC50 values for the respective NR1/NR2A, C, and D receptors were calculated. Electric response (%)=(inward current induced by NMDA in the presence of the test compound/inward current induced by NMDA in the absence of the test compound)×100

Assay [2] has as its target NR1/NR2B receptor (Mus musculus, UniProt P35438+Q01097). Described as above. In kind it is cell-based. As for the experimental part:
as §3, §4

The target of a further assay is NR1/NR2C receptor (Mus musculus, UniProt P35438+Q01098). The description is as above. In kind it is cell-based. The following applies: NMDA 100 μM and glycine 10 μM, -60 mV. As for the experimental part:
as §3, §4

The target in the next assay is NR1/NR2D receptor (Mus musculus, UniProt P35438+Q03391). The assay is described as above. In kind it is cell-based. The settings on record: NMDA 100 μM and glycine 10 μM, -60 mV. The method, then:
as §3, §4

In a further assay the test system is ICR type male mice. Put plainly: Analgesic effect in mouse formalin test. It is filed as in vivo. The settings on record: for ED50: Mus musculus, injected into the vein 5 minutes before 2% formalin. The method, then: Analgesic Effect in Mouse Formalin Test
The pain behavior attributed to formalin can be classified into two time-dependent phases and mice show pain behaviors, so-called licking and biting. In the first phase, acute pain was caused within 5 minutes immediately after formalin administration, and in the second phase, inflammatory pain was caused for 20 minutes from 10 to 30 minutes after the administration. ICR type male mice (5-week old) were used for the experiment. Formalin (2%) was subcutaneously injected to the right hind paw of the mice. The test compound (18) was dissolved in a solution, DMSO:HCO50:saline=1.5:1:7.5 and injected in difference concentrations into the vein 5 minutes before the formalin administration. The pain behavior time was measured for 30 minutes after formalin administration. The pain behavior time is to be shortened in the case the test compound causes analgesic effect. The measured time is substituted in the following equation to calculate the analgesic ratio (%) and the dose for 50% efficacy (ED50) was calculated. Analgesic ratio (%)=[…]

NR1/NR2B receptor (Mus musculus, UniProt P35438+Q01097), sequence (Q01097 27-1482, other chains not shown): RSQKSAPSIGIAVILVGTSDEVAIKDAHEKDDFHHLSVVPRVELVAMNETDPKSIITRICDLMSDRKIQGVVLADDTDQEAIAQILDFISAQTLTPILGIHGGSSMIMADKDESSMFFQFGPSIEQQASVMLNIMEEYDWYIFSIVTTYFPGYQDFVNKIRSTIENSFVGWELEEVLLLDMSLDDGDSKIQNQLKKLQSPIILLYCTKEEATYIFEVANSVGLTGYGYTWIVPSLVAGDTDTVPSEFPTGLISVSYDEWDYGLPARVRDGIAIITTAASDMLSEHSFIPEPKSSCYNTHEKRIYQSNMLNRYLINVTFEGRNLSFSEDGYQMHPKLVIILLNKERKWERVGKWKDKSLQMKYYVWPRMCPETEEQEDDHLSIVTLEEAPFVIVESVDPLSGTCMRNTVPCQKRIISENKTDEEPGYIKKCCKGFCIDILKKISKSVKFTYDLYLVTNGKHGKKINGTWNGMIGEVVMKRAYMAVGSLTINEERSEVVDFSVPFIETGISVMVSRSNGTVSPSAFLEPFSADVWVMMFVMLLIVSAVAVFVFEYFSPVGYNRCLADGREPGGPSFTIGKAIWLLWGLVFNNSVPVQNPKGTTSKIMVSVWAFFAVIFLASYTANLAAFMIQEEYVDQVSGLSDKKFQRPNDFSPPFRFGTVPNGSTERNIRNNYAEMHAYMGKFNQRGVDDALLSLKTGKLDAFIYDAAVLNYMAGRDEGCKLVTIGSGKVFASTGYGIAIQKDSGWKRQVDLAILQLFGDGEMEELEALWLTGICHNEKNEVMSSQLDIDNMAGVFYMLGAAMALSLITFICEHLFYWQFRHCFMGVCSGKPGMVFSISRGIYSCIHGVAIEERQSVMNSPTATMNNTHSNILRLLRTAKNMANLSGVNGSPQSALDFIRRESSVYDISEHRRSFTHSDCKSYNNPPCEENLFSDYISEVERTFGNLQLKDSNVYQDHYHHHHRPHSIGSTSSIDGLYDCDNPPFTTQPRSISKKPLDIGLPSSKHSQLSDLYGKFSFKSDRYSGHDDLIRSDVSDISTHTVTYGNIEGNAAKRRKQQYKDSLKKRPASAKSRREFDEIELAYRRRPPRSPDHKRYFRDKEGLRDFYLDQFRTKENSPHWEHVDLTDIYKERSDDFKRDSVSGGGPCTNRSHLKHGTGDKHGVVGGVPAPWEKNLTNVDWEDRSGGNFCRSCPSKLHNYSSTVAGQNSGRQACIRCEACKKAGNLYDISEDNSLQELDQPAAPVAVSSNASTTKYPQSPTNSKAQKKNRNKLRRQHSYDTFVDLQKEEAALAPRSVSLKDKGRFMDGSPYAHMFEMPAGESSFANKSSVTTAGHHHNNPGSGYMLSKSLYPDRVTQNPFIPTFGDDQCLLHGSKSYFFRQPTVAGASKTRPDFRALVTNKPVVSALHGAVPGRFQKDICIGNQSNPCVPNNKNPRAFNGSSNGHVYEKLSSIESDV
NR1/NR2A receptor, sequence (P35436 23-1464, other chains not shown): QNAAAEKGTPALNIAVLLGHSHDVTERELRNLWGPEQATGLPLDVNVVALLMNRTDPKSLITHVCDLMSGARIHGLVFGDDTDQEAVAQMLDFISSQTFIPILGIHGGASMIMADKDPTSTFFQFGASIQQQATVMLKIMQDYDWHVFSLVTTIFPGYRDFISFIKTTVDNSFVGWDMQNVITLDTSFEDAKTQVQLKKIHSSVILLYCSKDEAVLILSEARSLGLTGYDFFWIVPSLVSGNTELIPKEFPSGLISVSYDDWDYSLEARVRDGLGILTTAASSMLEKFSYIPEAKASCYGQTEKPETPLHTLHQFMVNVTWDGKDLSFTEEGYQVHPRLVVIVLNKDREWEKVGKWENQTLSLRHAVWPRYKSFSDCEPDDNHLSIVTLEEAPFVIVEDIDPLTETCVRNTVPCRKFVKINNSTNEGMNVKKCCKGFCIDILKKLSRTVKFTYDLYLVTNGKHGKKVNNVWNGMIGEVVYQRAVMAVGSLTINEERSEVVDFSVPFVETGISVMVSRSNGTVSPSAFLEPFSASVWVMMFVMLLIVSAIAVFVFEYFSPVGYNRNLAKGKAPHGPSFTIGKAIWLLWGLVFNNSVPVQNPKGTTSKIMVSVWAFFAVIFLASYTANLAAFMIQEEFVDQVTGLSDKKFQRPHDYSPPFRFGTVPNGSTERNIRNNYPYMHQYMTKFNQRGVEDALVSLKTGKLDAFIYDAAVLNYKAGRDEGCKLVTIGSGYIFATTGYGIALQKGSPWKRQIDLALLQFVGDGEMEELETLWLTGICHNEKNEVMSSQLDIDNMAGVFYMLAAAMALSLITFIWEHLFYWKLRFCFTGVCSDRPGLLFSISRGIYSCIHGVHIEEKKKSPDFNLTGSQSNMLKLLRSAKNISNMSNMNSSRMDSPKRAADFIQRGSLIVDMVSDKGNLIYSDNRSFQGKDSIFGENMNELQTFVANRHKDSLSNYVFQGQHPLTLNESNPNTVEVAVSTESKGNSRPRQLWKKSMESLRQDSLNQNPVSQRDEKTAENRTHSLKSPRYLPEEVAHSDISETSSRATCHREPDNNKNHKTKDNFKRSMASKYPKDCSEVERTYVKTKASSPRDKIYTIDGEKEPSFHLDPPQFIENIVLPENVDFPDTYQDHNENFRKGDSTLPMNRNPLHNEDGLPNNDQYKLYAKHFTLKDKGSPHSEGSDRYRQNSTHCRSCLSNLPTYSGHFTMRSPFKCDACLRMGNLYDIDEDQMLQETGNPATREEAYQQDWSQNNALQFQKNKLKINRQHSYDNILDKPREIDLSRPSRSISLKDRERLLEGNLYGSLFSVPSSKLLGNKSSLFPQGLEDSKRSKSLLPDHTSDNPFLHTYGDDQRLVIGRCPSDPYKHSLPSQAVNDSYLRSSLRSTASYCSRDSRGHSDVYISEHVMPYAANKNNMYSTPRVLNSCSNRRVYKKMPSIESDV

With `Cc1ccccc1CC1=CCN(CCCC(=O)c2ccc(O)cc2)CC1` [Compound 18], the IC50 was 0.004 µM at NR1/NR2B receptor [1]; 3 µM at PCP receptor; more than 30 µM on NR1/NR2A receptor; 4.6 µM against NR1/NR2B receptor [2] (NMDA 100 μM and glycine 10 μM, -60 mV, Xenopus oocytes); more than 30 µM against NR1/NR2C receptor; more than 30 µM on NR1/NR2D receptor. Moreover, the “competition with MK-801 at the PCP receptor (in words)” value (shortened to “competition”) in the assay with PCP receptor was “not competitive with MK-801”. Also, the “antagonistic effect on NR1/NR2 subfamilies (in words)” value at NR1/NR2B receptor [2] is reported as “specific antagonistic effect on the NR1/NR2B receptor”. Moreover, the ED50 in the assay with ICR type male mice (acute pain within 5 minutes, read-out: ED50, the first phase) was determined as 1.1 mg/kg; in the assay on ICR type male mice (inflammatory pain 10 to 30 minutes, read-out: ED50, the second phase) it was 0.7 mg/kg. Besides, the “analgesic effect (in words)” value in the assay on ICR type male mice (mouse, in vivo) is “confirmed”.

In the case of `O=C(CCCN1CCC(O)(Cc2ccc(OC(F)(F)F)cc2)CC1)c1ccc(O)cc1` [Compound 10], the IC50 on NR1/NR2B receptor [1] turned out to be 0.016 µM; on PCP receptor, 20 µM. Further, the “competition” value in the assay on PCP receptor is on record as “not competitive with MK-801”.

For `CC(C(O)c1ccc(O)cc1)N1CCC(O)(c2ccccc2)CC1` (racemic) [CP-101606, reference compound], the IC50 on PCP receptor was found to be 13 µM.

Compound `O=C(CCCN1CC=C(c2ccc(Cl)cc2)CC1)c1ccc(O)cc1` [Compound 32] had an IC50 on NR1/NR2B receptor [1] of 0.003 µM.

`O=C(CCCN1CC=C(Cc2ccc(F)cc2)CC1)c1ccc(O)cc1` [Compound 19]: the IC50 on NR1/NR2B receptor [1] amounted to 0.002 µM. In the assay on PCP receptor, the “competition” value is listed as “not competitive with MK-801” and the concentration for half-maximal inhibition (IC50) came out at 10 µM.

Usually IC50 stands for the concentration needed to halve the response being measured. The low end stands for greater potency, the high end for weaker potency. A word on the ED50: it is the midpoint of the dose-response relation.
